SMILES strings stand for the structures.

Experiment [1] deals with human normal melanocytes. Briefly: Melanogenesis inhibition experiment (14C-2-thiouracil incorporation). The format is cell-based. The conditions noted are these: for Melanin Amount (%) Sample (2): 1% plant extract or 0.1 μg/mL existing skin-whitening compound alone, ratio to control; for synergistic effect of a melanogenesis inhibitory action: in combination with D-pantothenyl alcohol, conclusion from Table 2. As to the method: According to the method described below, 2-thiouracil (^14C-labeled 2-thiouracil in the present test) which is specifically incorporated into melanin in the melanin synthesis process within cells was used to evaluate the melanogenesis inhibitory action. With a complete medium for melanocyte culture (Invitrogen Corporation) used in a 24-well plate, human normal melanocytes (Kurabo Industries, Ltd.) were seeded in each well at a concentration of 6.0×10^4 cells/well/0.5 mL. Under a 5% carbon dioxide atmosphere, the culture was conducted at 37° C. for 24 hours. Then, replacement was made such that a 0.5 mL medium containing D-pantothenyl alcohol at 0 mM or 1 mM was in each of three wells for each concentration and, to these […] wells, 0.5 μCi/well of 2-[2-^14C] thiouracil (Daiichi Clarity Co., Ltd.) was further added. And it was further cultured for 3 days under the same conditions as the aforementioned culture conditions. After completion of the culture, the culture medium was removed from each well, which was washed with PBS (phosphate-buffered saline), and the number of cells was measured using the WST-8 reagent (Dojindo Laboratories). The WST-8 reagent was removed from each well, which was washed with PBS, and using 100 (w/v) % trichloroacetic acid (Wako Pure Chemical Industries, Ltd.), the cells were separated from the bottom of the wells, to which water was then added for dilution so that the concentration of the trichloroacetic acid could be 10 (w/v) %, and which were allowed to stand in a refrigerator for 30 minutes. After the cells were recovered by centrifugation, the amount of ^14C-thiouracil in the cells recovered from each well was measured with a liquid scintillation counter (Aloka Co., Ltd.).
Relative to the radiation doses of the cells cultured in the media containing 0 mM D-pantothenyl alcohol (control), the radiation doses of the cells cultured in the media containing 1 mM D-pantothenyl alcohol were each obtained in percentage as the amount of melanin (%). In other words, it is possible to determine that the smaller the radiation dose incorporated into each cell is, the smaller the amount of melanin is, and accordingly, it is possible to determine that the melanin inhibition titer of the added ingredient is larger.
(§1) While 0 mM or 0 μM D-pantothenyl alcohol was used as a control similarly, the 1 mM D-pantothenyl alcohol in <Experiment 1> was replaced with each of the following samples (1) to (3) for experimenting.

For experiment [2], the system named is human normal keratinocytes. Briefly: Keratinocyte cell proliferation experiment (WST-8). The conditions noted are these: for Cell Proliferation Rate (%) Sample (2): 1% plant extract or 0.1 μg/mL existing skin-whitening compound alone, ratio to control; for synergistic effect of a keratinocyte cell proliferation action: in combination with D-pantothenyl alcohol, conclusion from Table 2. The format is cell-based. The procedure: According to the method described below, the cell proliferation promoting action was evaluated. With a complete medium for keratinocyte culture (Kurabo Industries, Ltd.) used in a 24-well plate, human normal keratinocytes (Kurabo Industries, Ltd.) were seeded in each well at a concentration of 1.0×10^4 cells/well/1 mL. Under a 5% carbon dioxide atmosphere, the culture was conducted at 37° C. for 24 hours. Then, replacement was made such that a 1 mL medium containing D-pantothenyl alcohol at 0 μM, 15 μM, or 150 μM was in each of three wells for each concentration. And it was further cultured for 2 days under the same conditions as the aforementioned culture conditions. After completion of the culture, 20 μL of the WST-8 reagent (Dojindo Laboratories) was added to each well, and color reaction was allowed at 37° C. for 3 hours. After the reaction, absorbances at 450 nm and 650 nm were measured using a microplate reader, Benchmark Plus (Bio-Rad Laboratories), and the 450 nm absorbance measurement minus the 650 nm absorbance measurement was calculated to give a cell proliferation measurement.
Relative to the cell proliferation measurements for the wells cultured in the media containing 0 μM D-pantothenyl alcohol (control), the cell proliferation measurements for the wells cultured in the media containing D-pantothenyl alcohol were each obtained in percentage as a cell proliferation rate (%). In other words, it is possible to determine that the larger the absorbance value is, the higher the cell proliferation rate is, and accordingly, it is possible to determine that the cell proliferation promotion titer of the added ingredients is larger.
as §1
In addition, the 15 μM and the 150 μM D-pantothenyl alcohol in <Experiment 2> were replaced with the aforementioned samples (1) to (3) respectively for experimenting. Note that the amount of melanin (%) and the cell proliferation rate (%) in Table 2 are both a ratio to the control, as described in Experiment 1 and Experiment 2.
On the technique in general: Formazan colour is commonly taken as a measure of viable cells.

Regarding `C[C@H]1[C@H](C)CC[C@]2(C(=O)O)CC[C@]3(C)C(=CC[C@@H]4[C@@]5(C)CCC(OP(=O)(O)O)C(C)(C)[C@@H]5CC[C@]43C)[C@H]12` (stereo partly shown) [Ursolic acid phosphate ester, ursolic acid phosphate ester], in experiment [1], the “Melanin Amount (%) Sample (2)” value is listed as 98.4% and the “synergistic effect of a melanogenesis inhibitory action” value is “synergistic effect”. For the same molecule, in experiment [2], the “Cell Proliferation Rate (%) Sample (2)” value amounted to 118.6% and the “synergistic effect of a keratinocyte cell proliferation action” value is listed as “synergistic effect”.
As for `CC(C)(CO)[C@@H](O)C(=O)NCCCO` [D-pantothenyl alcohol], in experiment [1] (1 mM D-pantothenyl alcohol alone, ratio to 0 mM control), the “Melanin Amount (%) Sample (1)” value came out at 69.8%. For the same molecule, in experiment [1] (Experiment 1, 1 mM vs 0 mM, FIG. 1, result in words), the melanogenesis inhibitory action entry is “has a melanogenesis inhibitory action”. Moreover, in experiment [2] (1 mM D-pantothenyl alcohol alone, ratio to 0 μM control), the “Cell Proliferation Rate (%) Sample (1)” value is 123.3%. Also, the “keratinocyte cell proliferation action” value in experiment [2] (Experiment 2, 15 μM or 150 μM vs 0 μM, FIG. 2, result in words) is “has a keratinocyte cell proliferation action”.
Take `c1ccc(C(c2ccccc2)(c2ccccc2)n2ccnc2)cc1` [Compound 1, 1-(triphenylmethyl) imidazole]: in experiment [1], the “Melanin Amount (%) Sample (2)” value amounted to 93.1% and the “synergistic effect of a melanogenesis inhibitory action” value was “synergistic effect”. Moreover, in experiment [2], the “Cell Proliferation Rate (%) Sample (2)” value is 112.1% and the “synergistic effect of a keratinocyte cell proliferation action” value was “synergistic effect”.
With `CSCCC(NC(=O)c1ccc(C)cc1)C(=O)O` (stereo not shown) [Compound 45, N-(toluyl) methionine], the “Melanin Amount (%) Sample (2)” value in experiment [1] came to 93.4%. Besides, the “Cell Proliferation Rate (%) Sample (2)” value in experiment [2] was 113.2%.
On to `O=C(N[C@@H](CO)C(=O)O)c1ccccc1` [Compound 31, N-benzoyl-L-serine], for which, in experiment [1], the “Melanin Amount (%) Sample (2)” value is on record as 94.6% and the “synergistic effect of a melanogenesis inhibitory action” value is listed as “synergistic effect”. Further, in experiment [2], the “Cell Proliferation Rate (%) Sample (2)” value is given as 118.7% and the “synergistic effect of a keratinocyte cell proliferation action” value was “synergistic effect”.
Take `CCCCc1ccc(O)cc1O` [4-n-butyl resorcinol]: in experiment [1], the “Melanin Amount (%) Sample (2)” value is listed as 93.2% and the “synergistic effect of a melanogenesis inhibitory action” value was “synergistic effect”. In experiment [2], the “Cell Proliferation Rate (%) Sample (2)” value was 120.3% and the “synergistic effect of a keratinocyte cell proliferation action” value was “synergistic effect”.
